The results in this text go back to ChEMBL document CHEMBL5143514, “Investigation of chalcogen bioisosteric replacement in a series of heterocyclic inhibitors of tryptophan 2,3-dioxygenase” (Eur J Med Chem, 2022).

The target of series [1] is T1, Tryptophan 2,3-dioxygenase (Homo sapiens, UniProt P48775). Put plainly: Inhibition of human TDO2 expressed in Escherichia coli BL21-DE3 rosetta cells at pH 6.5 potassium phosphate buffer using L-tryptophan as substrate measured after 15 mins.
The target of series [2] is T1, Tryptophan 2,3-dioxygenase. As to the kind of experiment: Inhibition of human TDO2 expressed in mouse P815B cells using L-tryptophan as substrate incubated for 7 hrs by UPLC analysis. It counts as cell-based.
Series [3] has as its target T2, Indoleamine 2,3-dioxygenase 1 (Homo sapiens, UniProt P14902). As to the kind of experiment: Inhibition of human IDO1 in potassium phosphate buffer at pH 6.5 using L-tryptophan as substrate incubated for 8 mins.
Series [4] concerns the target T2, Indoleamine 2,3-dioxygenase 1. As to the kind of experiment: Inhibition of human IDO1 expressed in mouse P815B cells using L-tryptophan as substrate incubated for 24 hrs by UPLC analysis. It counts as cell-based.
Series [5] is described as follows: Lipophilicity, logKw of compound in methanol and water buffer at pH 2.3 by HPLC-UV analysis. It counts as physicochemical.
Series [6] is described as follows: Metabolic stability in liver microsomes assessed as half life at 10 uM measured upto 24 hrs in the presence of NADPH by UPLC analysis. It counts as ADME, Microsome. (Liver microsomes are a subcellular fraction often used to study metabolism.)
The nature of series [7]: Cytotoxicity against mouse P815B cells assessed as reduction in cell viability measured after 6 hrs by MTS assay. It counts as functional. Conditions: read-out: LD50 (the source's name). (In general: Tetrazolium assays rely on reduction of a dye to a coloured formazan, in cell work by metabolically active cells.)
Series [8] can be described thus: Cytotoxicity against mouse P815B cells assessed as reduction in cell viability measured after 24 hrs by MTS assay. It counts as functional. Conditions: read-out: LD50 (the source's name).
For series [9], the system named is A 172. Put plainly: Cytotoxicity against human A 172 cells assessed as reduction in cell viability measured after 6 hrs by MTS assay. Conditions: read-out: LD50 (the source's name). It counts as functional.
For series [10], the system named is A 172. As to the kind of experiment: Cytotoxicity against human A 172 cells assessed as reduction in cell viability measured after 24 hrs by MTS assay. It counts as functional. To be noted: read-out: LD50 (the source's name).
Series [11] in a line: Cytotoxicity against HEK293 cells assessed as reduction in cell viability measured after 6 hrs by MTS assay. It counts as toxicity, cell-based. To be noted: human, read-out: LD50.
Series [12] can be described thus: Cytotoxicity against HEK293 cells assessed as reduction in cell viability measured after 24 hrs by MTS assay. It counts as toxicity, cell-based. To be noted: human, read-out: LD50.
Series [13] can be described thus: Induction of apoptosis in mouse P815B cells assessed as viable cells at 5 uM measured after 24 hrs by Annexin V-FITC/PI staining based flow cytometry method relative to control. It counts as functional. To be noted: read-out: Activity. In general terms: In flow cytometry, cells or beads pass a laser one at a time.
Series [14] is described as follows: Induction of apoptosis in mouse P815B cells assessed as viable cells at 1 uM measured after 24 hrs by Annexin V-FITC/PI staining based flow cytometry method relative to control. It counts as functional. Conditions: read-out: Activity.
Series [15] is described as follows: Induction of apoptosis in mouse P815B cells assessed as early apoptotic cells at 1 uM measured after 24 hrs by Annexin V-FITC/PI staining based flow cytometry method relative to control. It counts as functional.
A short description of series [16]: Induction of apoptosis in mouse P815B cells assessed as late apoptotic cells at 1 uM measured after 24 hrs by Annexin V-FITC/PI staining based flow cytometry method relative to control. It counts as functional.
A short description of series [17]: Induction of apoptosis in mouse P815B cells assessed as necrotic cells at 1 uM measured after 24 hrs by Annexin V-FITC/PI staining based flow cytometry method relative to control. It counts as functional.
The nature of series [18]: Induction of apoptosis in mouse P815B cells assessed as early apoptotic cells at 5 uM measured after 24 hrs by Annexin V-FITC/PI staining based flow cytometry method relative to control. It counts as functional.
Series [19] is described as follows: Induction of apoptosis in mouse P815B cells assessed as late apoptotic cells at 5 uM measured after 24 hrs by Annexin V-FITC/PI staining based flow cytometry method relative to control. It counts as functional.
Series [20] can be described thus: Induction of apoptosis in mouse P815B cells assessed as necrotic cells at 5 uM measured after 24 hrs by Annexin V-FITC/PI staining based flow cytometry method relative to control. It counts as functional.
Series [21] is described as follows: Induction of apoptosis in mouse P815B cells assessed as viable cells at 10 uM measured after 24 hrs by Annexin V-FITC/PI staining based flow cytometry method relative to control. It counts as functional. Conditions: read-out: Activity.
A short description of series [22]: Induction of apoptosis in mouse P815B cells assessed as early apoptotic cells at 10 uM measured after 24 hrs by Annexin V-FITC/PI staining based flow cytometry method relative to control. It counts as functional.
A short description of series [23]: Induction of apoptosis in mouse P815B cells assessed as late apoptotic cells at 10 uM measured after 24 hrs by Annexin V-FITC/PI staining based flow cytometry method relative to control. It counts as functional.
Series [24] can be described thus: Induction of apoptosis in mouse P815B cells assessed as necrotic cells at 10 uM measured after 24 hrs by Annexin V-FITC/PI staining based flow cytometry method relative to control. It counts as functional.
Series [25] is described as follows: Induction of apoptosis in mouse P815B cells assessed as apoptotic cells at 10 uM measured after 6 hrs by Annexin V-FITC/PI staining based flow cytometry method relative to control. It counts as functional.
A short description of series [26]: Induction of apoptosis in mouse P815B cells assessed as necrotic cells at 10 uM measured after 6 hrs by Annexin V-FITC/PI staining based flow cytometry method relative to control. It counts as functional.
A short description of series [27]: Induction of cell cycle arrest in mouse P815B cells assessed as accumulation of cells at G1 phase at 5 uM measured after 24 hrs by PI staining based flow cytometry method (reference value: 42.8%). It counts as functional.
Series [28] is described as follows: Induction of cell cycle arrest in mouse P815B cells assessed as accumulation of cells at S phase at 5 uM measured after 24 hrs by PI staining based flow cytometry method (reference value: 45.0%). It counts as functional.
Series [29] is described as follows: Induction of cell cycle arrest in mouse P815B cells assessed as accumulation of cells at G2 phase at 5 uM measured after 24 hrs by PI staining based flow cytometry method (reference value: 14.6%). It counts as functional.
Series [30] deals with P815B. Put plainly: Induction of ROS generation in mouse P815B cells assessed as increase in H2O2 concentration at high concentration measured upto 6 hrs by bioluminescent ROS-Glo H2O2 assay. It counts as functional, cell-based.
Series [31] deals with P815B. Put plainly: Cytotoxicity against mouse P815B cells assessed as reduction in cell viability at 30 uM measured after 24 hrs by MTS assay. It counts as functional, cell-based.

Activity calls are given as the source filed them. The rule behind the calls is not given here.

T2 sequence (P14902 whole entry): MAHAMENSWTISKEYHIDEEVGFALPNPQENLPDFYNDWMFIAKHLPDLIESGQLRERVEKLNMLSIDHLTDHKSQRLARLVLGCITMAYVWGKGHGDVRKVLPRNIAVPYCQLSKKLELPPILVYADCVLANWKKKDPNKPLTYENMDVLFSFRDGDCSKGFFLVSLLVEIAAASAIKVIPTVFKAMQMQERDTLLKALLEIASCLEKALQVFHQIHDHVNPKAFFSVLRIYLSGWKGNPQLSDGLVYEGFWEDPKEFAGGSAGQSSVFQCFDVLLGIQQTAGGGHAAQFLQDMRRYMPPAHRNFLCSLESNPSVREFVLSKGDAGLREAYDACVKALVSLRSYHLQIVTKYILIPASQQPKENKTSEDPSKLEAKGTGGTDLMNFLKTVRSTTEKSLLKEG
T1 sequence (P48775 whole entry): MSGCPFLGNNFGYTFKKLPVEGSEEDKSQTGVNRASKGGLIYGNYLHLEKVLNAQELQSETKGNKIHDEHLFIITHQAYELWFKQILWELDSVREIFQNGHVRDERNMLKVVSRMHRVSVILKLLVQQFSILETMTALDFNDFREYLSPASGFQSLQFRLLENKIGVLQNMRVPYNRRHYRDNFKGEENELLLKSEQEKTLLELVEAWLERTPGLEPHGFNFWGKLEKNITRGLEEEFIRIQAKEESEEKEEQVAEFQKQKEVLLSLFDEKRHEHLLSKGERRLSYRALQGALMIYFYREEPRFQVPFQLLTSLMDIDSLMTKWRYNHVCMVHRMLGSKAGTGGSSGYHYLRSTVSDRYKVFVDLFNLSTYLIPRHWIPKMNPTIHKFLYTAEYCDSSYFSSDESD

The term IC50 denotes the point on the concentration scale where inhibition reaches its midpoint. A higher IC50 goes with weaker potency in that assay. Usually half-life stands for how long it takes for the measured level to halve. As to `c1ccc2c(-c3ccc4nsnc4c3)c[nH]c2c1`, the IC50 was 3 µM in [1], 0.129 µM in series [2], greater than 100 µM in series [3] and greater than 100 µM in series [4]. Besides, the logKw in series [5] was determined as 4. Moreover, the half-life at 10 µM in series [6] turned out to be 35.6 min. Moreover, the CC50 came out at 30 µM in [7], 10 µM in series [8], 30 µM in the series with A 172 [9] and 30 µM with A 172 [10]. In addition, the CC50 at 6 h in series [11] is greater than 80 µM. For the same molecule, the CC50 at 24 h in [12] was greater than 80 µM.

On to `c1ccc2c(-c3ccc4nonc4c3)c[nH]c2c1`, for which the IC50 in [1] is 3.4 µM; in series [2], 0.051 µM; in series [3], greater than 100 µM; in series [4], greater than 100 µM. This molecule had a logKw in series [5] of 4.1. Besides, the half-life at 10 µM in [6] was 24.6 min. Besides, the CC50 in series [7] was determined as 10 µM; in [8], 10 µM; with A 172 [9], 30 µM; in the series with A 172 [10] it was 30 µM. Besides, the CC50 at 6 h in [11] is greater than 80 µM. Further, in [12], the CC50 at 24 h was greater than 80 µM.

For `c1ccc2c(-c3ccc4n[se]nc4c3)c[nH]c2c1`, the IC50 in [1] was 2.5 µM; in [2] it was 0.094 µM; in series [3], greater than 100 µM; in series [4], greater than 100 µM. The molecule also registered a logKw in series [5] of 3.5. For the same molecule, the half-life at 10 µM in series [6] is 70.2 min. The viability at 5 µM in series [13] was found to be 79.2%. The CC50 in [7] worked out at 30 µM; in series [8] it was 3 µM; with A 172 [9], 30 µM; in the series on A 172 [10], 30 µM. Moreover, in [11], the CC50 at 6 h is 30 µM. The CC50 at 24 h in series [12] came out at 10 µM. The viability at 1 µM in series [14] is 81%. The Activity was 1.15% in series [15]; 16.6% in series [16]; 1.24% in [17]; 5.19% in series [18]; 14.2% in series [19]; 1.46% in series [20]. For the same molecule, the Activity in [22] is given as 2.64%; in series [23], 44.1%; in [24], 0.55%; in series [25] it was 30.4%; in series [26], 27.6%; in series [27], 47.3%. In addition, the results for the Activity in series [28] and in series [29] were 41.3% and 11.6%, respectively. For the same molecule, the viability at 10 µM in [21] was found to be 52.7%. Besides, in the series with P815B [30], the result was Active.

As to `c1ccc2c(-c3cnc4nsnc4c3)c[nH]c2c1`, the IC50 in series [1] is 4.7 µM; in series [2], 0.082 µM; in series [3], greater than 100 µM; in [4], greater than 100 µM. In series [5], the logKw was found to be 3.3. The half-life at 10 µM in series [6] was 22 min. For the same molecule, the CC50 is greater than 80 µM in [7], 30 µM in series [8], greater than 80 µM in the series with A 172 [9] and greater than 80 µM with A 172 [10]. In addition, in series [11], the CC50 at 6 h is greater than 80 µM. In addition, the CC50 at 24 h in series [12] was greater than 80 µM. Moreover, the Activity result with P815B [31] was “Toxic”.

In the case of `c1ccc2c(-c3cnc4n[se]nc4c3)c[nH]c2c1`, the IC50 in [1] is 4.5 µM; in series [2], 0.171 µM; in series [3] it was greater than 100 µM; in series [4], greater than 100 µM. The same molecule yielded a logKw in series [5] of 2.9. Further, in [6], the half-life at 10 µM is 28.3 min. The CC50 in [7] was greater than 80 µM; in [8], 30 µM; in the series on A 172 [9], greater than 80 µM; in the series on A 172 [10] it was greater than 80 µM. Also, the CC50 at 6 h in series [11] was greater than 80 µM. In addition, the CC50 at 24 h in series [12] is greater than 80 µM. In addition, the Activity entry with P815B [31] is “Toxic”. In addition, the result with P815B [30] was Active.
